Data reported in patent publication US7041684B2, “Selective β3 adrenergic agonists” (Eli Lilly and Company, priority 1996, dated 2006).
Structures can show the parent of a compound that is named as a salt.

| melting point | Structure (SMILES) |
| --- | --- |
| 120 to 130 °C (dec.) | CC(C)(CNC(=O)c1ccc(Oc2ccc(C#N)cc2)cc1)NC[C@H](O)COc1cccc2[nH]c3ccccc3c12 (as salt: HCl) |
| 57 to 61 °C (dec.) | CCOC(=O)COc1ccc(OCCNC[C@H](O)COc2cccc3[nH]c4ccccc4c23)cc1 (as salt: HCl) |
